Experimental data taken from US9006394B2, “Peptide-presenting surfaces for long-term culture of pluripotent cells” (Wisconsin Alumni Research Foundation, priority 2008, dated 2015).
Ends that are not written are not given here.

Columns and labels:
[1] = Kyte & Doolittle; cited from earlier work
human ESCs (H9) = assay: Cell adhesion (CellTiter-Glo) with soluble heparin or chondroitinase ABC; type: cell-based; conditions: 1 hour; for hESC binding in the presence of soluble heparin: soluble heparin 0.5 mg/mL
Method: To determine the effect of a soluble GAG on hESC binding to GBPs, hESCs were plated onto Matrigel-coated surfaces, vitronectin-coated surfaces, or surfaces presenting the heparin-binding peptide […] (SEQ ID NO: 1) in the presence or absence of soluble heparin (0.5 mg/mL). After 1 hour, the surfaces were washed and the cells lysed. The cell lysates were used to determine approximate cell numbers using Cell Titer Glo (Promega). The ratio of the mean luminescence of the cell lysates of cells plated in the presence of heparin versus those without heparin was expressed as percent cell binding for each surface.
To determine if glycosaminoglycans (GAGs) are required for GBP binding, human ESCs (H9) cultured on Matrigel were dissociated using an enzyme-free, Hanks'-based cell dissociation buffer (Sigma) for 10-15 minutes. Cells were resuspended in DMEM/F12 (Gibco), or DMEM/F12 supplemented with 2 units/mL chondroitinase ABC (Sigma), or 500 ug/mL heparin (Sigma). Cells treated with the GAG-degrading enzymes were incubated for 1 hour in suspension at 37° C. Cell suspensions were seeded onto Matrigel-coated surfaces, recombinant vitronectin-coated surfaces (10 μg/mL, R&D Systems), or SAMs presenting the peptide […] (SEQ ID NO: 1) at a 5% surface density. After 1 hour, surfaces were washed 3 times with PBS and the cells were lysed with M-PER buffer (Thermo Fisher Scientific, Inc., Rockford, Ill.). The cell lysate was mixed with CellTiter-Glo (Promega) to determine the number of viable cells in culture based on the presence of ATP. The luminescence was measured on 20/20^n luminometer (Turner Biosystems, Inc., Sunnyvale Calif.). • Cell Growth: […]

[2] = tested on: hES cells (H9 and H13) and vector-free iPS cells (DF19-9); assay: Cell growth over two passages (Cell Counting Kit-8); type: cell-based, human
Method: hESCs (H9) were cultured on Matrigel, vitronectin, polylysine, […] (SEQ ID NO: 1), or KGRGDS (SEQ ID NO: 5) over two passages in mTeSR media supplemented with 5 μm ROCK inhibitor. Cell counts were calculated at each time point using Cell Counting Kit-8 (Dojindo Molecular Technologies, Inc., Rockville, Md.).

pluripotent stem cells = assay: Number of cell divisions by fluorescent cell staining; type: cell-based, human
hESCs [3] = assay: Culture on other chemically defined surfaces (streptavidin plates, polyacrylamide gels, glass coverslips); type: cell-based, human
From the text: Moreover, some hESCs were passaged to streptavidin-coated plates treated with biotinylated vitronectin GBP (SEQ ID NO:1) or polyacrylamide gels cross-linked to vitronectin GBP (SEQ ID NO:1).

hESCs [4] = assay: Flow cytometry of pluripotent cell-specific markers after three passages on SAMs; type: cell-based, human; conditions: for pluripotent cell-specific marker expression (Oct-4, SSEA-3, SSEA-4) after 3 passages: 3 passages on SAMs
Method: The density of the peptides on the surface varied from 0.5% to 25% (see, FIG. 1).
Regardless of the nature of the chemically defined surface or peptide(s) attached thereto, about 5×10^4 cells/ml were manually passaged to a fresh chemically defined surface every 5-7 days (i.e., at confluency) after treatment with an Enzyme-Free Cell Dissociation Buffer (Sigma; St. Louis, Mo.; a phosphate-buffered saline (PBS)+ethylenediamine tetraacetic acid (EDTA) 0.02% wt/vol) for 10-15 minutes. After three passages (about 21 days), the cells were evaluated for pluripotent cell-specific markers by flow cytometry.
hESCs were dissociated with 0.05% trypsin-EDTA with 2% chicken serum (Gibco). Cell surface marker staining was performed in PBS containing 2% BSA (wt/vol) at 4° C. for 30 minutes with directly conjugated antibodies against alkaline phosphatase (R&D Systems), Tra 1-60 (BD Biosciences), Tra 1-81 (BD Biosciences), SSEA-4 (BD Biosciences), SSEA-3 (BD Biosciences), SSEA-1 (R&D Systems) followed by a 30 minute fixation with 2% formaldehyde/PBS at room temperature.
For intracellular marker staining, hESCs were fixed with 2% formaldehyde/PBS at room temperature for 30 minutes. For Oct-4 staining, cells were permeabilized with saponin permeabilization buffer (SPB; 0.1% saponin, 0.1% BSA wt/vol in PBS) for 30 minutes at room temperature followed by incubation with an Oct-4 PE-conjugated antibody overnight. Cells were then washed 2 times with SPB before analysis.
Flow cytometry data was obtained using a FACSCalibur™ (BD Biosciences) and analyzed using FlowJo Software (Tree Star, Inc.; Ashland, Oreg.). The percentage of positive cells was established by comparing experimental cells to partially differentiated hESCs. Gating for positive and negative populations was established by analyzing the bimodal peaks of partially differentiated hESCs.

hESCs [5] = assay: Initial cell survival on SAMs with heregulin supplement; type: cell-based, human; conditions: 10 ng/ml in mTeSR1
Method: hESCs were passaged to SAMs of peptide-AT conjugates on gold in mTeSR™1 optionally supplemented with 10 ng/ml heregulin-β1 (Peprotech; Rocky Hill, N.J.) and 5 μM Y-27632 (Calbiochem; San Diego, Calif.). […] Some surfaces presented peptide-AT conjugates of only vitronectin GBP (SEQ ID NO:1), fibronectin GBP (SEQ ID NO:2) or bone sialoprotein GBP (SEQ ID NO:3) Alternatively, some surfaces presented peptide-AT conjugates of only the integrin-binding peptide (SEQ ID NO:5), another bioactive peptide derived from fibronectin (SEQ ID NO:6), the FGF receptor binding peptide (SEQ ID NO:4), the laminin-derived bioactive peptide (SEQ ID NO:7), […] (SEQ ID NO: 8) or […] (SEQ ID NO: 9). Furthermore, some surfaces presented separate peptide-AT conjugates of the integrin-binding peptide (SEQ ID NO:5) and FGF receptor binding peptide (SEQ ID NO:4); the integrin-binding peptide (SEQ ID NO:5) and vitronectin GBP (SEQ ID NO:1); the integrin-binding peptide (SEQ ID NO:5) and bioactive peptide derived from fibronectin (SEQ ID NO:6); and the vitronectin GBP (SEQ ID NO:1) and […] (SEQ ID NO: 9). The density of the peptides on the surface varied from 0.5% to 25% (see, FIG. 1).

[6] = tested on: undifferentiated hESCs (Oct-4 positive) and differentiated cells derived from embryoid bodies (Oct-4 negative); assay: Effect of ROCK inhibitor on cellular adhesion; type: cell-based, human
Method: Effect of ROCK inhibitor on cellular adhesion: A mixture of undifferentiated hESCs (Oct-4 positive) and differentiated cells derived from embryoid bodies (Oct-4 negative) was seeded onto self-assembled monolayer surfaces presenting the GBP […] (SEQ ID NO: 1) and the integrin binding peptide KGRGDS (SEQ ID NO: 5). For some experiments, cells were seeded onto polyacrylamide gels or glass coverslips presenting the […] (SEQ ID NO: 47) peptide. The cells were grown for 24 hours in mTeSR medium containing 5 μM ROCK inhibitor Y-27632 and then switched to mTeSR medium without ROCK inhibitor for an additional 24 hours. The cells were fixed and stained for Oct-4 and counterstained with phalloidin and DAPI. In some instances, cells were added to the surfaces without ROCK inhibitor.

[7] = 24 hours with 5 μM, then 24 hours without

N[C@@H](CCC(=O)O)C(=O)O [E]
Hydropathy index [1]: −3.5

N[C@@H](CS)C(=O)O [C]
Hydropathy index [1]: 2.5

heparin [reference compound]
hESC binding in the presence of soluble heparin (human ESCs (H9)): inhibited adhesion

N[C@@H](Cc1ccccc1)C(=O)O [F, phenalalanine]
Hydropathy index [1]: 2.8

C[C@@H](O)[C@H](N)C(=O)O [T]
Hydropathy index [1]: −0.7

C[C@H](N)C(=O)O [A, alanine]
Hydropathy index [1]: 1.8

vitronectin: recombinant vitronectin-coated surfaces (10 μg/mL, R&D Systems)
plating efficiency after 24 hours [2]: equivalent
cell numbers after each passage ([2]; two passages, mTeSR with ROCK inhibitor): Increased cell numbers
number of cell divisions (pluripotent stem cells): fewer cell divisions
adhesion of cells treated with chondroitinase ABC (human ESCs (H9); 2 units/mL chondroitinase ABC, 5% surface density): maintained their ability to adhere
hESC binding in the presence of soluble heparin (human ESCs (H9)): not

CC(C)[C@H](N)C(=O)O [V, valine]
Hydropathy index [1]: 4.2

N[C@@H](CC(=O)O)C(=O)O [D]
Hydropathy index [1]: −3.5

CGKKQRFRHRNRKG (not fully specified (C-terminus); also: conjugated to polyacrylamide or glass; listed as Homo sapiens) [peptide conjugated to polyacrylamide gels or glass coverslips]
cell adhesion and growth on non-SAM substrate (hESCs [3]; compared with SAMs): supported cell adhesion and growth comparable to SAMs

NCCCC[C@H](N)C(=O)O [K, lysine]
Hydropathy index [1]: −3.9

N=C(N)NCCC[C@H](N)C(=O)O [R, arginine]
Hydropathy index [1]: −4.5

N[C@@H](Cc1c[nH]c2ccccc12)C(=O)O [W]
Hydropathy index [1]: −0.9

NC(=O)C[C@H](N)C(=O)O [N]
Hydropathy index [1]: −3.5

CC[C@H](C)[C@H](N)C(=O)O [I, isoleucine]
Hydropathy index [1]: 4.5

KGRGDS (not fully specified (C-terminus); listed as Homo sapiens)
plating efficiency after 24 hours [2]: lowest plating efficiency
support of self-renewal (hESCs [4]; 3 passages): insufficient to support self-renewal
pluripotent cell-specific marker expression (Oct-4, SSEA-3, SSEA-4) after 3 passages (hESCs [4]): significantly lower levels of pluripotent cell-specific markers
pluripotent cell-specific marker expression (Oct-4, SSEA-3, SSEA-4) after 3 passages (hESCs [4]; listed as RGD-presenting surfaces): fewer cells in the population displayed markers of pluripotency
cell growth rate on surface (hESCs [4]; compared with GAG-binding peptide surfaces): much more slowly
number of cell divisions (pluripotent stem cells): fewer cell divisions

N[C@@H](Cc1ccc(O)cc1)C(=O)O [Y]
Hydropathy index [1]: −1.3

N[C@@H](Cc1c[nH]cn1)C(=O)O [H, histidine]
Hydropathy index [1]: −3.2

CSCC[C@H](N)C(=O)O [M, methionine]
Hydropathy index [1]: 1.9

heregulin
initial cell survival (hESCs [5]): modest improvement

N[C@@H](CO)C(=O)O [S]
Hydropathy index [1]: −0.8

biotinylated SEQ ID NO:1: streptavidin-coated plates treated with biotinylated vitronectin GBP (SEQ ID NO:1) (GKKQRFRHRNRKG; not fully specified (C-terminus); also: biotinylated, site not given here; listed as Homo sapiens)
cell adhesion and growth on non-SAM substrate (hESCs [3]; compared with SAMs): supported cell adhesion and growth, although not to the same extent
cell death when ROCK inhibitor is omitted (hESCs [3]; streptavidin-coated plates): without observable increase in cell death
colony spreading (hESCs [3]; streptavidin-coated plates, compared with SAMs): lower than on SAMs

C[C@@H](N)[C@H]1CC[C@H](C(=O)Nc2ccncc2)CC1.Cl.Cl [ROCK inhibitor, (+)-(R)-trans-4-(1-aminoethyl)-N-(4-pyridyl)cyclohexanecarboxamide dihydrochloride]
attachment of differentiated cells after removal of ROCK inhibitor [6, 7]: remained attached and viable
attachment of undifferentiated cells after removal of the ROCK inhibitor [6, 7]: significant detachment
Oct-4 positive undifferentiated cells among adherent cells when seeded without the ROCK inhibitor ([6]; cells added to the surfaces without ROCK inhibitor): few of these cells were Oct-4 positive
